Test [1] has as its system E. coli transformants. Nature of the test: Fragment exchange: transformants selected for PPT resistance. The format is cell-based. The source says:
(§1) Tables I and II show the results obtained.

Test [2] has as its target T1, pea leaf glutamine synthetase (Pisum sativum, UniProt P08281).
T1 sequence (P08281 50-430): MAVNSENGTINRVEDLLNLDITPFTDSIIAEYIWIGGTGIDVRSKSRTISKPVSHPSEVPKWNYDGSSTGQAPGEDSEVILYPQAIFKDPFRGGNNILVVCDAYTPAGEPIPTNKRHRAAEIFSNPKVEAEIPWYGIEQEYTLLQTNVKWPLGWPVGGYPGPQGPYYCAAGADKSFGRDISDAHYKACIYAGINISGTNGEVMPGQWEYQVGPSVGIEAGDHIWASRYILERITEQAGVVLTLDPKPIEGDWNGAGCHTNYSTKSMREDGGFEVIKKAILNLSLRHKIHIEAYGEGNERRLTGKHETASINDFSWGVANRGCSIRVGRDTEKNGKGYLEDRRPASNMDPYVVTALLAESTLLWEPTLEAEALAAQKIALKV
As to conditions: mixed competitive inhibitor; cited from earlier work.

Test [3] relates to E. coli containing pCGS3. Nature of the test: Replating on M9 with PPT, plasmid pCGS3. Format: cell-based.
Source text: as §1

For test [4], the target named is T2, PPT resistant mutant GS (lys 332) (pCGS3-LYS332) (Medicago sativa, UniProt P04078, R332K).
T2 construct: made in house; host or cells: E. coli FDB213 (glnA deletion), clarified lysate
Briefly: biochemical. More on the design: species or system alfalfa. The note with it: read-out: Relative GS Enzyme Activity. The protocol: (§2) The cells were collected by centrifugation at 5,000 r.p.m. (5° C.) for 5 min, resuspended in 1.0 ml 10mM Tris-HCl, pH 7.5, 1 mM EDTA, 5 mM beta-mercaptoethanol, and lysed by sonication.

The target of test [5] is T3, PPT resistant mutant GS (ser 245) (pCGS3-SER245) (Medicago sativa, UniProt P04078, G245S).
T3 construct: made in house; host or cells: E. coli FDB213 (glnA deletion), clarified lysate
Nature of the test: Inhibition of GS activity by PPT, lysate of E. coli FDB213 containing pCGS3-Ser245. Format: biochemical, alfalfa. As to conditions: read-out: Relative GS Enzyme Activity. The protocol:
as §2

Test [6] concerns the target T4, wild-type GS (pCGS3) (Medicago sativa, UniProt P04078).
T4 construct: made in house; host or cells: E. coli FDB213 (glnA deletion), clarified lysate
T4 sequence (P04078 1-356): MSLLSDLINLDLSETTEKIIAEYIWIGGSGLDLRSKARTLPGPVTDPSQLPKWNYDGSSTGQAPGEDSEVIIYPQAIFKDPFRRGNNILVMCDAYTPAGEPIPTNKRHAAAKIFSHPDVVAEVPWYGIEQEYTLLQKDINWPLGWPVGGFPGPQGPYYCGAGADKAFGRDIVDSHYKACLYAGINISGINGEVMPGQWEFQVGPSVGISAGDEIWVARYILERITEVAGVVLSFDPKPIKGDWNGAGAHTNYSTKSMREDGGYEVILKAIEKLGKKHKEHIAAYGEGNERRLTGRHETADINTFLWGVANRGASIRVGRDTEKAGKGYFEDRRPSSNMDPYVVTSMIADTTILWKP
Nature of the test: Inhibition of GS activity by PPT, lysate of E. coli FDB213 containing pCGS3. Format: biochemical, alfalfa. As to conditions: read-out: Relative GS Enzyme Activity. How it is done: as §2

These results are taken from patent US4975374A (priority 1987, dated 1990).

As usually defined, the Ki is a dissociation constant, usually derived from enzyme kinetics or from competition with a known ligand.

T3 sequence (P04078 whole entry G245S): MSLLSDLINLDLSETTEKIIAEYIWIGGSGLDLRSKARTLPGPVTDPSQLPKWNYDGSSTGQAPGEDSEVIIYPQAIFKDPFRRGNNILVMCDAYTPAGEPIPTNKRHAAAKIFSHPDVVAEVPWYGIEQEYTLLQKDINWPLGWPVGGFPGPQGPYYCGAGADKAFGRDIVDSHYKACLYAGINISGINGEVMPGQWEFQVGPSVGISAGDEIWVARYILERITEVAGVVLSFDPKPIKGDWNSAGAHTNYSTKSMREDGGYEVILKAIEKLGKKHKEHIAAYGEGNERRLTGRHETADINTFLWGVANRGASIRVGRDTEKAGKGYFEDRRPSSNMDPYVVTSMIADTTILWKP
T2 sequence (P04078 whole entry R332K): as the sequence (P04078 whole entry G245S) above, with S245G, R332K counted along it

Take `CP(=O)(O)CC[C@H](N)C(=O)O` [L-PPT, L-phosphinothricin]: the “NUMBER OF COLONIES M9 AMP + 3 mM L-PPT” value was 100 in test [1] (9: CCC pCGS3); > 1000 in test [1] (10: CCC pCGS3 PPT^r); 8 in test [1] (ligation 2: insert PPT^r SalI-NcoI, vector SalI-NcoI); 6 in test [1] (ligation 4: insert PPT^r NcoI-EcoRI, vector NcoI-EcoRI); 300 in test [1] (ligation 6: insert PPT^r EcoRI-HindIII, vector EcoRI-HindIII); 2 in test [1] (ligation 8: insert PPT^r HindIII-BamHI, vector HindIII-BamHI).

`CS(=N)(=O)CCC(N)C(=O)O` (centres unmarked) [MSO, methione sulfoximine]: the Ki in test [2] was 160 µM.

As for `CP(=O)(O)CC[C@H](N)C(=O)O` [PPT, phosphinothricin], the growth on replating in test [3] (M9/6 mM PPT, from LB) was determined as 0; in test [3] (M9/6 mM PPT, from M9), 0; in test [3] (M9/12 mM PPT, from LB), 0; in test [3] (M9/12 mM PPT, from M9) it was 0. In addition, the values for the remaining activity at 4 µM in test [4], in test [5] and in test [6] (4 uM PPT) were 103%, 103% and 102%, respectively. Moreover, the remaining activity at 25 µM in test [4] came out at 103%; in test [5] it was 103%; in test [6] (25 uM PPT), 95.7%. The remaining activity at 62.5 µM is 103% in test [4], 97.3% in test [5] and 84% in test [6] (62.5 uM PPT). The remaining activity at 125 µM in test [4] is 100%; in test [5], 91.4%; in test [6] (125 uM PPT), 68%. Besides, the remaining activity at 250 µM in test [4] worked out at 98.5%; in test [5], 80.6%; in test [6] (250 uM PPT), 42.7%. In addition, the remaining activity at 2000 µM in test [4] is 78.2%; in test [5], 30.7%; in test [6] (2 mM PPT), 15%. The remaining activity at 20000 µM in test [4] is 23.8%; in test [5] it was 5.3%; in test [6] (20 mM PPT), 4.3%.
